Source: publication PMC11497264 (Chembiochem, 2024)
pIC50, pKd: −log10 of the molar value. Read-outs that look alike come from different tables or passages of the source. Bridge positions count the residues as written; N and C are the ends. Peptide text beside a SMILES is read from it.

Columns and labels:
[1] = biological target: T1, human GRP78 (Homo sapiens, UniProt P11021); test: biochemical; assay type: binding; settings: for kon: read-out: Ka1 (association rate constant 1)
T1 construct: The full length human GRP78 protein recombinantly produced in Escherichia coli; 6xHis (inferred from capture on nickel-NTA chip); purchased Abcam (Cambridge, UK); host or cells: Escherichia coli

[2] = biological target: T2, GRP78:S1 interaction (Homo sapiens, UniProt P11021); test: biochemical; assay type: binding, human GRP78 / SARS-CoV-2 S1
T2 construct: The full length human GRP78 protein recombinantly produced in Escherichia coli; purchased Abcam (GRP78); Peak Proteins Ltd (S1); host or cells: Escherichia coli (GRP78); HEK293 (S1)

[3] = read-out: Kd1 (dissociation rate constant 1)
[4] = read-out: Kd2 (dissociation rate constant 2)

T1 sequence (P11021 19-654): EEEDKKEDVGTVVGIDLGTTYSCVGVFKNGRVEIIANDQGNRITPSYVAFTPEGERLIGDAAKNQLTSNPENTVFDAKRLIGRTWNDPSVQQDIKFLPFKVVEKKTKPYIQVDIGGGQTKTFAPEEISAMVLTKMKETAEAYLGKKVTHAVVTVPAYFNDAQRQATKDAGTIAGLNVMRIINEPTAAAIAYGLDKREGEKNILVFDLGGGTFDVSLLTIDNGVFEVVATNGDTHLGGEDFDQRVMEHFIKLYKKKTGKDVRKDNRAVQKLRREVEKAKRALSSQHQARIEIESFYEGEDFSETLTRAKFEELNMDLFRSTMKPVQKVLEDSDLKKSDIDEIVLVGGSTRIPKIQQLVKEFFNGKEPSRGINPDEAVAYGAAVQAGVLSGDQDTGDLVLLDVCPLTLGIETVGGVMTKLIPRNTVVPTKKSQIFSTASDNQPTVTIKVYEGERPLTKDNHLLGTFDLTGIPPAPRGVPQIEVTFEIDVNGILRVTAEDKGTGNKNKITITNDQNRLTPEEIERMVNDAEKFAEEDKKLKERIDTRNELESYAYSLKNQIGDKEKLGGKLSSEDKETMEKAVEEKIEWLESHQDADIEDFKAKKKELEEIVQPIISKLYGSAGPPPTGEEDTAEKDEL
T2 sequence (P11021 19-654): as above

Compound | pKd ([1]; KD (equilibrium dissociation constant)) | pKd ([1]; affinity of binding to GRP78) | kon [1] [M⁻¹ s⁻¹] | koff [1, 3] [s⁻¹] | koff [1, 4] [s⁻¹] | pIC50 [2]
CC(C)[C@@H]1NC(=O)CNC(=O)[C@H](CC(N)=O)NC(=O)[C@@H](N)CSSC[C@@H](C(N)=O)NC(=O)[C@H](CC(N)=O)NC(=O)[C@H](Cc2ccccc2)NC(=O)CNC(=O)[C@H](C)NC1=O [LCP O] (H-CNGVAGFNC-NH2; disulfide 1-9) | 2.67 | 2.70 | 140 | 0.643 | 0.00182 | > 5.52
CC(C)[C@@H]1NC(=O)CNC(=O)[C@H](CC(N)=O)NC(=O)[C@@H](N)CSSC[C@@H](C(N)=O)NC(=O)[C@H](CC(N)=O)NC(=O)[C@H](Cc2ccccc2)NC(=O)CNC(=O)[C@H](CCC(=O)O)NC1=O [LCP W] (H-CNGVEGFNC-NH2; disulfide 1-9) |  | 3.70 | 1670 | 0.43 | 0.03 | > 5.52
